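Tested at 5 concentrations; 48 h exposure; 96-well plates; endpoints linearly interpolated, else capped at highest concentration. TGI is the concentration that stops growth completely.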
Legend:
Test in all cases: NCI-60 cell line screen, 48 h
NCI-H23 lung = system: NCI-H23 lung
SW-620 colon = system: SW-620 colon
M14 melanoma = system: M14 melanoma
SF-295 CNS = system: SF-295 CNS
OVCAR-5 ovarian = system: OVCAR-5 ovarian
OVCAR-4 ovarian = system: OVCAR-4 ovarian
NCI/ADR-RES ovarian = system: NCI/ADR-RES ovarian
HOP-92 NSCLC = system: HOP-92 NSCLC
HCT-15 colon = system: HCT-15 colon
MALME-3M melanoma = system: MALME-3M melanoma
UACC-257 melanoma = system: UACC-257 melanoma
HL-60(TB) leukemia = system: HL-60(TB) leukemia
HS 578T breast = system: HS 578T breast
TK-10 renal = system: TK-10 renal
A549 NSCLC = system: A549 NSCLC
MDA-N = system: MDA-N
RXF 393 renal = system: RXF 393 renal
BT-549 breast = system: BT-549 breast
MDA-MB-231 breast = system: MDA-MB-231 breast
U251 CNS = system: U251 CNS
SF-268 CNS = system: SF-268 CNS
IGROV1 ovarian = system: IGROV1 ovarian
KM12 colon = system: KM12 colon
RPMI-8226 leukemia = system: RPMI-8226 leukemia
UO-31 renal = system: UO-31 renal
SN12C renal = system: SN12C renal
NCI-H522 lung = system: NCI-H522 lung
HT29 colon = system: HT29 colon
SR leukemia = system: SR leukemia
OVCAR-3 ovarian = system: OVCAR-3 ovarian
COLO 205 colon = system: COLO 205 colon
LOX IMVI melanoma = system: LOX IMVI melanoma
OVCAR-8 ovarian = system: OVCAR-8 ovarian
CAKI-1 renal = system: CAKI-1 renal
K-562 leukemia = system: K-562 leukemia
HOP-62 NSCLC = system: HOP-62 NSCLC
MOLT-4 leukemia = system: MOLT-4 leukemia
T-47D breast = system: T-47D breast
SNB-19 CNS = system: SNB-19 CNS
SK-MEL-5 melanoma = system: SK-MEL-5 melanoma
MDA-MB-435 = system: MDA-MB-435
SK-OV-3 ovarian = system: SK-OV-3 ovarian
SF-539 CNS = system: SF-539 CNS
786-0 renal = system: 786-0 renal
NCI-H460 lung = system: NCI-H460 lung
HCT-116 colon = system: HCT-116 colon
EKVX NSCLC = system: EKVX NSCLC
CCRF-CEM leukemia = system: CCRF-CEM leukemia
HCC-2998 colon = system: HCC-2998 colon
PC-3 prostate = system: PC-3 prostate
DU-145 prostate = system: DU-145 prostate
SNB-75 CNS = system: SNB-75 CNS
UACC-62 melanoma = system: UACC-62 melanoma
SK-MEL-28 melanoma = system: SK-MEL-28 melanoma
MCF7 breast = system: MCF7 breast
ACHN renal = system: ACHN renal
NCI-H226 lung = system: NCI-H226 lung
SK-MEL-2 melanoma = system: SK-MEL-2 melanoma
A498 renal = system: A498 renal

Molecule `O=CN(CCN1CCCC1)C1CCc2cc(Cl)c(Cl)cc2C1` (configuration not stated) has a TGI (NCI-H23 lung) of 60 µM, a TGI (SW-620 colon) of over 100 µM and a TGI (M14 melanoma) of 29.3 µM. It also gave a TGI (SF-295 CNS) of 19 µM, a TGI (OVCAR-5 ovarian) of 40.7 µM and a TGI (OVCAR-4 ovarian) of over 100 µM. The TGI (NCI/ADR-RES ovarian) was 61.2 µM, the TGI (HOP-92 NSCLC) was over 100 µM and the TGI (HCT-15 colon) was 31.8 µM. For the same molecule, the TGI (MALME-3M melanoma) was 27.3 µM, the TGI (UACC-257 melanoma) was 30.5 µM and the TGI (HL-60(TB) leukemia) was 37.2 µM. It also gave a TGI (HS 578T breast) of 42.3 µM, a TGI (TK-10 renal) of 34.8 µM and a TGI (A549 NSCLC) of 23.2 µM. For the same molecule, the TGI (MDA-N) was 23.4 µM, the TGI (RXF 393 renal) was 28.8 µM and the TGI (BT-549 breast) was 27.7 µM. For the same molecule, the TGI (MDA-MB-231 breast) was 26.1 µM, the TGI (U251 CNS) was 24.6 µM and the TGI (SF-268 CNS) was over 100 µM. For the same molecule, the TGI (IGROV1 ovarian) was 97.6 µM, the TGI (KM12 colon) was 20.9 µM and the TGI (RPMI-8226 leukemia) was 45.3 µM. It also gave a TGI (UO-31 renal) of 27.1 µM, a TGI (SN12C renal) of over 100 µM and a TGI (NCI-H522 lung) of 23 µM. For the same molecule, the TGI (HT29 colon) was 18.2 µM, the TGI (SR leukemia) was 60.7 µM and the TGI (OVCAR-3 ovarian) was 30.6 µM. It also gave a TGI (COLO 205 colon) of 37.8 µM, a TGI (LOX IMVI melanoma) of 27.3 µM and a TGI (OVCAR-8 ovarian) of 48.6 µM. For the same molecule, the TGI (CAKI-1 renal) was 53.8 µM, the TGI (K-562 leukemia) was 51.6 µM and the TGI (HOP-62 NSCLC) was 34.9 µM. For the same molecule, the TGI (MOLT-4 leukemia) was 55 µM, the TGI (T-47D breast) was 41.3 µM and the TGI (SNB-19 CNS) was 75 µM. For the same molecule, the TGI (SK-MEL-5 melanoma) was 42 µM, the TGI (MDA-MB-435) was 28.6 µM and the TGI (SK-OV-3 ovarian) was 29 µM. The TGI (SF-539 CNS) was 48.2 µM, the TGI (786-0 renal) was 19.9 µM and the TGI (NCI-H460 lung) was 21.4 µM. The TGI (HCT-116 colon) was 24.9 µM, the TGI (EKVX NSCLC) was over 100 µM and the TGI (CCRF-CEM leukemia) was 43.9 µM. The TGI (HCC-2998 colon) was 31.2 µM, the TGI (PC-3 prostate) was 28.9 µM and the TGI (DU-145 prostate) was over 100 µM.
`Cc1ccc(-n2c(=O)c3nn4c(=O)n(-c5ccc(C)cc5)c(=O)c4nn3c2=O)cc1` showed a TGI (NCI-H23 lung) of over 100 µM, a TGI (SNB-75 CNS) of over 100 µM and a TGI (UACC-62 melanoma) of over 100 µM. It also gave a TGI (SW-620 colon) of over 100 µM, a TGI (SK-MEL-28 melanoma) of over 100 µM and a TGI (M14 melanoma) of over 100 µM. The TGI (SF-295 CNS) was over 100 µM, the TGI (OVCAR-5 ovarian) was over 100 µM and the TGI (OVCAR-4 ovarian) was over 100 µM. It also gave a TGI (NCI/ADR-RES ovarian) of over 100 µM, a TGI (MCF7 breast) of over 100 µM and a TGI (HOP-92 NSCLC) of over 100 µM. The TGI (HCT-15 colon) was over 100 µM, the TGI (MALME-3M melanoma) was over 100 µM and the TGI (UACC-257 melanoma) was over 100 µM. It also gave a TGI (HL-60(TB) leukemia) of over 100 µM, a TGI (HS 578T breast) of over 100 µM and a TGI (TK-10 renal) of over 100 µM. It also gave a TGI (A549 NSCLC) of over 100 µM, a TGI (MDA-N) of over 100 µM and a TGI (RXF 393 renal) of over 100 µM. For the same molecule, the TGI (BT-549 breast) was over 100 µM, the TGI (U251 CNS) was over 100 µM and the TGI (SF-268 CNS) was over 100 µM. The TGI (IGROV1 ovarian) was over 100 µM, the TGI (KM12 colon) was over 100 µM and the TGI (RPMI-8226 leukemia) was over 100 µM. For the same molecule, the TGI (UO-31 renal) was over 100 µM, the TGI (SN12C renal) was over 100 µM and the TGI (NCI-H522 lung) was over 100 µM. For the same molecule, the TGI (HT29 colon) was over 100 µM, the TGI (ACHN renal) was over 100 µM and the TGI (SR leukemia) was over 100 µM. The TGI (OVCAR-3 ovarian) was over 100 µM, the TGI (COLO 205 colon) was over 100 µM and the TGI (LOX IMVI melanoma) was over 100 µM. The TGI (OVCAR-8 ovarian) was over 100 µM, the TGI (CAKI-1 renal) was over 100 µM and the TGI (K-562 leukemia) was over 100 µM. The TGI (HOP-62 NSCLC) was over 100 µM, the TGI (MOLT-4 leukemia) was over 100 µM and the TGI (NCI-H226 lung) was over 100 µM. It also gave a TGI (T-47D breast) of over 100 µM, a TGI (SNB-19 CNS) of over 100 µM and a TGI (SK-MEL-5 melanoma) of over 100 µM. For the same molecule, the TGI (MDA-MB-435) was over 100 µM, the TGI (SK-OV-3 ovarian) was over 100 µM and the TGI (SF-539 CNS) was over 100 µM. It also gave a TGI (SK-MEL-2 melanoma) of over 100 µM, a TGI (786-0 renal) of over 100 µM and a TGI (NCI-H460 lung) of over 100 µM. The TGI (HCT-116 colon) was over 100 µM, the TGI (EKVX NSCLC) was over 100 µM and the TGI (CCRF-CEM leukemia) was over 100 µM. For the same molecule, the TGI (HCC-2998 colon) was over 100 µM, the TGI (PC-3 prostate) was over 100 µM and the TGI (DU-145 prostate) was over 100 µM.
`CC(C)(Cl)C(Br)CCC(C)(Br)C(Br)CBr` (configuration not stated) was tested, and the TGI (NCI-H23 lung) was 38.6 µM, the TGI (UACC-62 melanoma) was 48.3 µM and the TGI (SW-620 colon) was 31.4 µM. It also gave a TGI (SK-MEL-28 melanoma) of 33.6 µM, a TGI (M14 melanoma) of 33.7 µM and a TGI (SF-295 CNS) of 32.8 µM. For the same molecule, the TGI (OVCAR-5 ovarian) was 31.2 µM, the TGI (OVCAR-4 ovarian) was 37.5 µM and the TGI (NCI/ADR-RES ovarian) was 31.6 µM. The TGI (HOP-92 NSCLC) was 48.6 µM, the TGI (HCT-15 colon) was 42.6 µM and the TGI (MALME-3M melanoma) was 31.8 µM. It also gave a TGI (UACC-257 melanoma) of 37.5 µM, a TGI (HL-60(TB) leukemia) of 36.5 µM and a TGI (HS 578T breast) of 46.5 µM. For the same molecule, the TGI (TK-10 renal) was 62.2 µM, the TGI (A549 NSCLC) was 92.2 µM and the TGI (MDA-N) was 43.1 µM. It also gave a TGI (RXF 393 renal) of 38 µM, a TGI (BT-549 breast) of 42.8 µM and a TGI (MDA-MB-231 breast) of 25.9 µM. The TGI (U251 CNS) was 30.1 µM, the TGI (SF-268 CNS) was 32.6 µM and the TGI (IGROV1 ovarian) was 39.9 µM. It also gave a TGI (KM12 colon) of 36 µM, a TGI (RPMI-8226 leukemia) of 40.1 µM and a TGI (UO-31 renal) of 36.1 µM. It also gave a TGI (SN12C renal) of 35.8 µM, a TGI (NCI-H522 lung) of 26.5 µM and a TGI (HT29 colon) of 29.2 µM. For the same molecule, the TGI (ACHN renal) was 31.9 µM, the TGI (OVCAR-3 ovarian) was 29.9 µM and the TGI (COLO 205 colon) was 31 µM. The TGI (OVCAR-8 ovarian) was 29.7 µM, the TGI (K-562 leukemia) was over 100 µM and the TGI (HOP-62 NSCLC) was 32.5 µM. The TGI (MOLT-4 leukemia) was 53.4 µM, the TGI (NCI-H226 lung) was 39.3 µM and the TGI (T-47D breast) was 46.4 µM. For the same molecule, the TGI (SNB-19 CNS) was 54.6 µM, the TGI (SK-MEL-5 melanoma) was 28 µM and the TGI (A498 renal) was 34.8 µM. It also gave a TGI (MDA-MB-435) of 35.3 µM, a TGI (SK-OV-3 ovarian) of over 100 µM and a TGI (SF-539 CNS) of 29 µM. The TGI (SK-MEL-2 melanoma) was 30.3 µM, the TGI (786-0 renal) was 31.2 µM and the TGI (NCI-H460 lung) was 31.1 µM. It also gave a TGI (HCT-116 colon) of 29.5 µM, a TGI (EKVX NSCLC) of 70.3 µM and a TGI (CCRF-CEM leukemia) of 28.7 µM. The TGI (HCC-2998 colon) was 25.8 µM, the TGI (PC-3 prostate) was 64.7 µM and the TGI (DU-145 prostate) was 39.2 µM.
